Assay results taken from ChEMBL document CHEMBL1201862, “PubChem BioAssay data set” (2004).
Calls of active or inactive are those of the source.

Legend:
Protein RecA = target: T1, Protein RecA (Mycobacterium tuberculosis, UniProt P9WHJ3); assay: Fluorescence Cell-Free Homogeneous Dose Retest to Identify Inhibitors of RecA-Intein Splicing Activity. [Related pubchem assays (depositor defined):AID2097, AID2223, AID489010, AID492950]; type: functional
T1 sequence (P9WHJ3 whole entry): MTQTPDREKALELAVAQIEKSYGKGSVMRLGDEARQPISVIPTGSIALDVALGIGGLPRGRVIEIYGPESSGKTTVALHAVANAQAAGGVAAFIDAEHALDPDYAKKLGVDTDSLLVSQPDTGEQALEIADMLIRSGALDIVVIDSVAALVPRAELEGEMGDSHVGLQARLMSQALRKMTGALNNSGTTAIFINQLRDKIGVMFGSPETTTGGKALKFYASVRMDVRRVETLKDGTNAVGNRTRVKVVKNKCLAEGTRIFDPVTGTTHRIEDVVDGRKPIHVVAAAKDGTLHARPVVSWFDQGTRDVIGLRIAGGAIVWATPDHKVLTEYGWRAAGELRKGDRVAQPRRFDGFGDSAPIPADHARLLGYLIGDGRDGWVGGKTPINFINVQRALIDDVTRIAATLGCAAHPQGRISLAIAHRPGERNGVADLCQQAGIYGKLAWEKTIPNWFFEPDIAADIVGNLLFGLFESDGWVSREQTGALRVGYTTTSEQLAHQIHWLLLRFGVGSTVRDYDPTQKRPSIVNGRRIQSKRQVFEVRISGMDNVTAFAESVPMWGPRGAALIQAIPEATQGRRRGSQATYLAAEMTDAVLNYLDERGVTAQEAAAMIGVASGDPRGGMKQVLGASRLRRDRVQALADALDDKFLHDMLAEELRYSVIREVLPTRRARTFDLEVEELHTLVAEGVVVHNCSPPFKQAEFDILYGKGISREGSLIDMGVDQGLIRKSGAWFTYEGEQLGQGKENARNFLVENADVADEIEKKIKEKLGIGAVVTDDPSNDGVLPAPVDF

[1] = target: T2, High affinity choline transporter 1 (Homo sapiens, UniProt Q9GZV3); assay: human choline transporter blockers, potency – cell-based, 10-point CRC, membrane potential dye, dose response (AID 588401); type: functional;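 further: membrane potential dye fluorescence of choline-evoked depolarization via CHT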
T2 sequence (Q9GZV3 whole entry): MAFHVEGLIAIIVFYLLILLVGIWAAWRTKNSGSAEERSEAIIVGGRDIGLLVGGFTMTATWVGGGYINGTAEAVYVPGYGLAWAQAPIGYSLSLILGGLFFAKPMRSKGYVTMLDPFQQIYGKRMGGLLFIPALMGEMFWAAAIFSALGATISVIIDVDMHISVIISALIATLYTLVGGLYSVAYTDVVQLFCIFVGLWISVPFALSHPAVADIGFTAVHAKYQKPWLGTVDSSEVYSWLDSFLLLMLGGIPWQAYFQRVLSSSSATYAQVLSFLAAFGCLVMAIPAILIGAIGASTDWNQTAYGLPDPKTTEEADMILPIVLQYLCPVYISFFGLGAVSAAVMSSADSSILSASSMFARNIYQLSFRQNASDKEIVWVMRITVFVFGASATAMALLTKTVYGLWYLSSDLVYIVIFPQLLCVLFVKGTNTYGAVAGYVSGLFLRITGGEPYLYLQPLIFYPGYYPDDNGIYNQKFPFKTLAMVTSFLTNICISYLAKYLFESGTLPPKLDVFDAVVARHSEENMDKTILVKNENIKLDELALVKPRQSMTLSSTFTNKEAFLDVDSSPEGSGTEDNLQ

[2] = target: T2, High affinity choline transporter 1; assay: human choline transporter blockers, potency – cell-based, 5-point CRC, membrane potential dye, dose response (AID 504840); type: functional
Vero = assay: viability of Vero cells under compound – cytotoxicity control for flavivirus capping enzyme inhibitors (AID 588742); type: functional; conditions: Chlorocebus sabaeus
[3] = target: T3, Ubiquitin-conjugating enzyme E2 N (Homo sapiens, UniProt P61088); type: functional
T3 sequence (P61088 whole entry): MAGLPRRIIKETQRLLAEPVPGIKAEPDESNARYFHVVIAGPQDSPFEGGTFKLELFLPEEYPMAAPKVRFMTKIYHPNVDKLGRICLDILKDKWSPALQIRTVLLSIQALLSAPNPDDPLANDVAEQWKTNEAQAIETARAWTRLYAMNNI

Bcl-2-related protein A1 = target: T4, Bcl-2-related protein A1 (Mus musculus, UniProt Q07440); type: functional;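 further: confirmatory dose–response counterscreen on Bfl-1, used to check hits from a UBC13 polyubiquitin inhibitor campaign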
T4 sequence (Q07440 whole entry): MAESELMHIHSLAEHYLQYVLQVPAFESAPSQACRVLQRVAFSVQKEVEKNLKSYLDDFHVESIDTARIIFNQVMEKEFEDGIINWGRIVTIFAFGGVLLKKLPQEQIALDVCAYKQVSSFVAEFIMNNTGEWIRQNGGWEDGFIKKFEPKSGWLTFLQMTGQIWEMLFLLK

[4] = EF1alpha-driven Renilla reporter with control 3'UTR suppression – Clone20-Shn3RL cells, dual-Glo, cherry-pick, set 2, counter-screen for Shn3 3'UTR targeting project, dose response (AID 720724); type: functional, cell-based; conditions: Dual-Go Shn3RL
[5] = non-specific 3'UTR reporter inhibition in Clone20-Shn3RL – cell-based, Renilla luciferase, cherry-picked, counter-screen for Shn3 inhibitor project, dose response (AID 624133); type: functional
[6] = target: T3, Ubiquitin-conjugating enzyme E2 N; type: functional; remark: listed apart in the source
[7] = target: T5, Replicative DNA helicase DnaB (Mycobacterium tuberculosis, UniProt P9WMR3); assay: DnaB intein splicing inhibitors, dose response, biochemical, cell-free fluorescence (AID 449749); type: functional
T5 sequence (P9WMR3 whole entry): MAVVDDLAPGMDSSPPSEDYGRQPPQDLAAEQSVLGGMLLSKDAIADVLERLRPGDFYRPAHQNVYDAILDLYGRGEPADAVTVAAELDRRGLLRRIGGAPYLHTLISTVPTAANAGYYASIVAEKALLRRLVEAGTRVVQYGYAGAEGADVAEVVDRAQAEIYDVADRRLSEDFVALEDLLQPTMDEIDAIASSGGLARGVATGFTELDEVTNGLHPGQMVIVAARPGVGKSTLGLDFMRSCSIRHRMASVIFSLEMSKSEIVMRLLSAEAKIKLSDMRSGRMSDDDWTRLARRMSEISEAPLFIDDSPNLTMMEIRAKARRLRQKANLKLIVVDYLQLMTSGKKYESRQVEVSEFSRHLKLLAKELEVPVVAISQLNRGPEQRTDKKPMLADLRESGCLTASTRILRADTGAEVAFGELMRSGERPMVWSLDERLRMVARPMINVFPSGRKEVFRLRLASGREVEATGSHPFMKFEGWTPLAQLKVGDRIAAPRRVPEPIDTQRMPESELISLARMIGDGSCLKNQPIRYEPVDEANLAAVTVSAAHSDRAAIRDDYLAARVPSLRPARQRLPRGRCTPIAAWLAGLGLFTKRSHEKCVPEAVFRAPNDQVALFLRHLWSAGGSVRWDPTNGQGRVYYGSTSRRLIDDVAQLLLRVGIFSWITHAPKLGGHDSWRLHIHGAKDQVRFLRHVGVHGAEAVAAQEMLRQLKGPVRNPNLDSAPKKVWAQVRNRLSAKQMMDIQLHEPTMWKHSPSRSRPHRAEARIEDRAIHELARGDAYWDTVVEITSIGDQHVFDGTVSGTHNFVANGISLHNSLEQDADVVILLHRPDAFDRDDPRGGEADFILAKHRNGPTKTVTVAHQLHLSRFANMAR

Genome polyprotein = Genome polyprotein (dengue virus type 2, UniProt P29990); assay: flavivirus cap methylation enzyme inhibition – biochemical, confirmation dose response, primary screen (AID 588689); type: functional
Sequence of Genome polyprotein (P29990 2492-3391 limits assumed): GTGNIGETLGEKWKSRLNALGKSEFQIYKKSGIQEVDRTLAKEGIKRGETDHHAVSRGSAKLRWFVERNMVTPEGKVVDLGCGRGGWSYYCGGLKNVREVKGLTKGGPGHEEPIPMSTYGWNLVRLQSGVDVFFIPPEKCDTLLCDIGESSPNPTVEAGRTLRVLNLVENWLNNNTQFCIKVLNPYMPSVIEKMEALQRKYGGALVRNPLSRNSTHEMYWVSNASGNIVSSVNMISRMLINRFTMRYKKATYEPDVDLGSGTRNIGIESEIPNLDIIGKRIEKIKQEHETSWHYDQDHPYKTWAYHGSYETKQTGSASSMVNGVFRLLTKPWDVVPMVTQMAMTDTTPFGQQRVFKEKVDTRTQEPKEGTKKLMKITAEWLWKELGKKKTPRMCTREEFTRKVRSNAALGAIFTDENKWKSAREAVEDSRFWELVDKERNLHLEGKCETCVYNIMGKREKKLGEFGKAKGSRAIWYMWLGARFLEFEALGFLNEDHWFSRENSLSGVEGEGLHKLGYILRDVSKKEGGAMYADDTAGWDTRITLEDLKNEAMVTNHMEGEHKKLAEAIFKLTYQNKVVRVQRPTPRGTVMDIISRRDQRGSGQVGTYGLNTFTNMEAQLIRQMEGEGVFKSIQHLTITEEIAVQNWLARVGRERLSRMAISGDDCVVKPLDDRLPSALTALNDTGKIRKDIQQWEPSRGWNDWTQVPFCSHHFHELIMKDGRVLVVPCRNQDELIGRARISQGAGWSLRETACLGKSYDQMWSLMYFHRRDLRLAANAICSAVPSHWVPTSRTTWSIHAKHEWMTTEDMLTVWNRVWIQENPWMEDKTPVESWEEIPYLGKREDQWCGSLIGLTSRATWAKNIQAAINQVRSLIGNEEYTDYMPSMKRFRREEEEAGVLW

[8] = Shn3 3'UTR reporter signal decrease – cell-based, Clone20 osteoblasts, firefly luciferase, cherry-pick, set 2, Schnurri-3 inhibitor project, dose response (AID 720490); type: functional;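 further: actives lower the luminescence signal as inhibitors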
[9] = Shn3 transcript knock-down in Clone20 cells – cell-based, qPCR, cherry-pick, dose response (AID 743415); type: functional
[10] = reduction of Shn3 3'UTR-driven luciferase in osteoblasts – cell-based, Clone20 osteoblasts, firefly luciferase, cherry-picked, dose response (AID 624132); type: functional;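 further: firefly luciferase luminescence from reporter carrying the Shn3 3'UTR in osteoblasts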
[11] = target: Potassium voltage-gated channel subfamily KQT member 2 (Rattus norvegicus, UniProt O88943, W236L); assay: potentiation of rat KCNQ2 current – cell-based, automated electrophysiology, mechanism study for KCNQ2 potentiator project, dose response (AID 2603); type: functional
Sequence of Potassium voltage-gated channel subfamily KQT member 2 (O88943 whole entry W236L): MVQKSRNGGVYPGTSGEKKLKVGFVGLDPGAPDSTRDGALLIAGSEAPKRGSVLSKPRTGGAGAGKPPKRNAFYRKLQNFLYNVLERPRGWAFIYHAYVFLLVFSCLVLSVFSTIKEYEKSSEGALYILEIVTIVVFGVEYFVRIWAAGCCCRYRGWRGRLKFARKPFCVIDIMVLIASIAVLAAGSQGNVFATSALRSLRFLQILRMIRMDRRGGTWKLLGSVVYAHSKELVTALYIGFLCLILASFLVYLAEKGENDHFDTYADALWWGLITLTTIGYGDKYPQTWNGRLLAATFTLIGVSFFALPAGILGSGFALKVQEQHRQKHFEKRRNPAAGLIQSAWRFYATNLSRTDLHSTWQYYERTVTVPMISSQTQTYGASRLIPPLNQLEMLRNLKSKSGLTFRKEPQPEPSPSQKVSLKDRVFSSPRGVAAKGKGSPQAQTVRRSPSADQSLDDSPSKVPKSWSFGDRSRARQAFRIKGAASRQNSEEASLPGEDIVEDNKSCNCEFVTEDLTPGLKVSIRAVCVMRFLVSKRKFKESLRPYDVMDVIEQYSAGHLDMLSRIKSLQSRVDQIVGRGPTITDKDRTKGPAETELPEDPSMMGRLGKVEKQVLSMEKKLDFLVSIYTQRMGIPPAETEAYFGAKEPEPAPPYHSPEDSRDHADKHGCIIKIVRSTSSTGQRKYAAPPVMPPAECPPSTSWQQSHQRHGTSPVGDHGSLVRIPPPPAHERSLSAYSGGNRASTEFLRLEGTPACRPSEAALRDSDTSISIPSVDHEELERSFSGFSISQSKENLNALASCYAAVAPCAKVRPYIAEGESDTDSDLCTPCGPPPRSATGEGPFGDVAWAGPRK

cells = type: functional, cell-based
BJ [12] = assay: growth inhibition of engineered Ras-driven BJ cells – cell-based, alamar blue fluorescence, cherrypicked samples, dose response (AID 2631); type: functional; conditions: Homo sapiens;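 further: confirmatory dose-response assay in RAS-dependent BJ fibroblasts engineered with TERT, LT and ST, with cytotoxicity read by fluorescence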
[13] = target: T6, Nuclear receptor subfamily 0 group B member 1 (Homo sapiens, UniProt P51843); type: functional, cell-based;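 further: HEK293T cells transfected with SF-1 and DAX-1 plus StAR promoter luciferase reporter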
T6 sequence (P51843 whole entry): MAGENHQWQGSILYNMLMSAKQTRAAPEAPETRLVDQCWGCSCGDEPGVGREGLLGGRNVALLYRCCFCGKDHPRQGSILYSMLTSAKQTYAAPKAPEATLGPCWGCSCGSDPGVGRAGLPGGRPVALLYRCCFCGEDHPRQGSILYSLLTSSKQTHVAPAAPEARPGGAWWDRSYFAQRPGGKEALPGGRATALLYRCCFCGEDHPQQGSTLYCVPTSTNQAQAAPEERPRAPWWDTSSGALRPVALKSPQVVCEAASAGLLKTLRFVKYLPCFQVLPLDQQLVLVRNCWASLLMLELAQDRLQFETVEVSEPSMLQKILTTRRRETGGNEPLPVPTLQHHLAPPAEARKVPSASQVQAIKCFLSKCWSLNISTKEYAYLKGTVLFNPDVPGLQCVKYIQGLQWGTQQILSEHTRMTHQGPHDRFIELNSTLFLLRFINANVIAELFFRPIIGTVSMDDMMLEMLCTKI

[14] = DRD fibroblast viability loss – cell-based, non-viral oncogenic, luminescence, dose response (AID 1934); type: functional; conditions: Homo sapiens
BJ [15] = assay: cells; type: functional, cell-based; conditions: Homo sapiens
[16] = Luminescence-based dose response cell-based high throughput screening assay for cytotoxic compounds using the IEC-6 intestinal epithelial cell line. [Related pubchem assays: 1858 (Summary AID.), 1825 (Counterscreen.), 1907 (Confirmation screen.)]; type: functional
BJ [17] = assay: BJ-TERT fibroblast viability loss – cell-based, RAS-independent, luminescence, dose response (AID 1933); type: functional; conditions: Homo sapiens
Aspartyl aminopeptidase = Aspartyl aminopeptidase (Plasmodium falciparum 3D7, UniProt Q8I2J3); assay: Counterscreen for inhibitors of M1 and M17 aminopeptidases: QFRET-based biochemical high throughput dose response assay for inhibitors of the Plasmodium falciparum M18 Aspartyl Aminopeptidase (PFM18AAP). [Related PubChem assays: 1619 (Screening assay (M17LAP inhibitors).), 1445 (Screening assay (M1AAP inhibitors).)]
Sequence of Aspartyl aminopeptidase (Q8I2J3 whole entry): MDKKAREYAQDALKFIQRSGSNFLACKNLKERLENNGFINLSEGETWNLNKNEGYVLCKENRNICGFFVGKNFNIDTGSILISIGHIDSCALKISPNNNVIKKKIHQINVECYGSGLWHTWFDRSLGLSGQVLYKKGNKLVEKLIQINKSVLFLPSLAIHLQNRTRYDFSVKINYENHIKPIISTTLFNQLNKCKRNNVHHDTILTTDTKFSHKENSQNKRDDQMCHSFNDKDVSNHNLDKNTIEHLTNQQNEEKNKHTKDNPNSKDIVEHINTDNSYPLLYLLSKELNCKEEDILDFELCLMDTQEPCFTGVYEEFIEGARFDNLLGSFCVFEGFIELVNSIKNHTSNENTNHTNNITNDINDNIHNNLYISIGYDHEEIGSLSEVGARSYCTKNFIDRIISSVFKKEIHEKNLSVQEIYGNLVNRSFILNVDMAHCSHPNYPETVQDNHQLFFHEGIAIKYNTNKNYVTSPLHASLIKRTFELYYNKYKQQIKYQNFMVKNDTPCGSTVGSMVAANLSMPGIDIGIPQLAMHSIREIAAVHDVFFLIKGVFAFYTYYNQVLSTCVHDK

Leucine aminopeptidase = target: T7, Leucine aminopeptidase (Plasmodium falciparum 3D7, UniProt Q8IL11); assay: P. falciparum M17LAP inhibitors, primary screen, biochemical, fluorogenic H-Leu-NHMec substrate, 1536-well (AID 1619); type: functional
T7 sequence (Q8IL11 whole entry): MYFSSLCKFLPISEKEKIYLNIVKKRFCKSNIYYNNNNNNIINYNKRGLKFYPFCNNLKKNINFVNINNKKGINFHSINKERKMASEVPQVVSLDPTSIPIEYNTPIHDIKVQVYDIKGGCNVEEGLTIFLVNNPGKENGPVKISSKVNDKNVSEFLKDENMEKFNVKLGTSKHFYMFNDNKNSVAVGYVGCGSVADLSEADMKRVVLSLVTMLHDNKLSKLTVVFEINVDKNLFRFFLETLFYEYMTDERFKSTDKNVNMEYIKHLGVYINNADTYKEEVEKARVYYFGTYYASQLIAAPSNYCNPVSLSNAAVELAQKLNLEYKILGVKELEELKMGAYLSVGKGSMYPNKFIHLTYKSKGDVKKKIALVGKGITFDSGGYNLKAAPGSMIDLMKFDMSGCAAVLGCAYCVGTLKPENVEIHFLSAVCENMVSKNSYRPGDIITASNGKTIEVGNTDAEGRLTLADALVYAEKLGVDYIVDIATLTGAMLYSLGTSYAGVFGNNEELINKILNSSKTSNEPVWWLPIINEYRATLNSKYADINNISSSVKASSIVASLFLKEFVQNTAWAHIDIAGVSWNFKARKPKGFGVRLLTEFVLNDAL

Procathepsin L = Procathepsin L (Homo sapiens, UniProt P07711); assay: CTSL1 protease inhibition – biochemical, QFRET, 1536-well, counter-screen for M1/M17 aminopeptidase inhibitor project, dose response (AID 2214)
Sequence of Procathepsin L (P07711 whole entry): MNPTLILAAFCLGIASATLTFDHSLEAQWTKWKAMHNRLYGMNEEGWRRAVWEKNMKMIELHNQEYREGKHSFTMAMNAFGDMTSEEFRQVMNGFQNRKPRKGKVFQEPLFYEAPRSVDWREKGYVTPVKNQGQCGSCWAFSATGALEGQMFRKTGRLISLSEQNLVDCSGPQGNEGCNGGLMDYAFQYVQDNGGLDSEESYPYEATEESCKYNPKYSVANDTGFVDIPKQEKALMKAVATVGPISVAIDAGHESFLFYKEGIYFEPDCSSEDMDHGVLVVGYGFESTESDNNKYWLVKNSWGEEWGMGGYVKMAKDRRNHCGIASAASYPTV

CCCc1nnc(NC(=O)c2nc(S(=O)(=O)Cc3ccc(C)cc3)ncc2Cl)s1
EC50 (Protein RecA): 86.7 µM (active) | IC50 [1]: 3.36 µM (active) | IC50 [2]: 2.59 µM (active) | CC50 (Vero): > 40 µM (active) | IC50 [3]: 14.8 µM (active) | IC50 (Bcl-2-related protein A1): > 20 µM (inactive) | AC50 [4]: 40.7 µM (active) | AC50 [5]: 12.5 µM (active) | IC50 [6]: 10.5 µM (active) | AC50 [7]: > 380 µM (inactive) | IC50 (Genome polyprotein): > 100 µM (active) | AC50 [8]: 2.05 µM (active) | AC50 [9]: 13.4 µM (active) | AC50 [10]: 0.538 µM (active) | EC50 [11]: 3.02 µM (active)

N#Cc1c(NC(=O)/C=C/c2ccco2)sc2c1CCCC2
IC50 (cells): > 67.6 µM (inactive) | EC50 (BJ [12]): < 0.104 µM (active) | IC50 [13]: 1.43 µM (active) | EC50 [14]: 0.278 µM (active) | EC50 (BJ [15]): 1.48 µM (inconclusive) | IC50 [16]: 0.136 µM (active) | EC50 (BJ [17]): 0.181 µM (active)

CCOc1cccc(-c2cc(O)[nH]n2)c1
EC50 (Protein RecA): 0.695 µM (active) | IC50 (Aspartyl aminopeptidase): > 73.5 µM (not active) | AC50 [7]: 2.18 µM (active) | IC50 (Leucine aminopeptidase): 1.25 µM (active) | IC50 (Procathepsin L): > 59.6 µM (not active)
